Assay results: ChEMBL document CHEMBL1201862, “PubChem BioAssay data set” (2004)
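Values below derive from 48-hour exposures of cells grown in 96-well plates, with endpoints linearly interpolated between the two concentrations bracketing the appropriate inhibition level. At the GI50, growth is halved.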 The source made the active and inactive calls. Cut-off read from the data, not from the text of the source: active = GI50 up to about 1.1 µM and inactive = higher.

Experiments:
Test in all cases: growth of human tumour cells (NCI), 48 h
ACHN = system: ACHN
MDA-MB-231 = system: MDA-MB-231
DU-145 = system: DU-145
HCC 2998 = system: HCC 2998
HL-60 = system: HL-60
NCI/ADR-RES = system: NCI/ADR-RES
T47D = system: T47D
NCI-H460 = system: NCI-H460
HT-29 = system: HT-29
SW-620 = system: SW-620
MOLT-4 = system: MOLT-4
SK-MEL-5 = system: SK-MEL-5
Malme-3M = system: Malme-3M
MDA-N = system: MDA-N
DLD-1 = system: DLD-1
TK-10 = system: TK-10
SK-MEL-28 = system: SK-MEL-28
IGROV-1 = system: IGROV-1
NCI-H226 = system: NCI-H226
MCF7 = system: MCF7

| SMILES | GI50 (ACHN) | GI50 (MDA-MB-231) | GI50 (DU-145) | GI50 (HCC 2998) | GI50 (HL-60) | GI50 (NCI/ADR-RES) | GI50 (T47D) | GI50 (NCI-H460) | GI50 (HT-29) | GI50 (SW-620) | GI50 (MOLT-4) | GI50 (SK-MEL-5) | GI50 (Malme-3M) | GI50 (MDA-N) | GI50 (DLD-1) | GI50 (TK-10) | GI50 (SK-MEL-28) | GI50 (IGROV-1) | GI50 (NCI-H226) | GI50 (MCF7) |
| --- | --- | --- | --- | --- | --- | --- | --- | --- | --- | --- | --- | --- | --- | --- | --- | --- | --- | --- | --- | --- |
| COc1ccc(Cc2cc(OC)c(OC)c(OC)c2)cc1O | 0.167 µM (active) | 0.0122 µM (active) | 0.0231 µM (active) | 2.41 µM (inactive) | 0.0235 µM (active) | < 0.01 µM (active) | 53.8 µM (inactive) | 0.0841 µM (active) | 14.3 µM (inactive) | < 0.01 µM (active) | 0.0211 µM (active) | 0.0215 µM (active) | 0.0389 µM (active) | < 0.01 µM (active) | 0.207 µM (active) | > 90.4 µM (inactive) | < 0.0169 µM (active) | 3.78 µM (inactive) | 36.7 µM (inactive) | 0.0244 µM (active) |
| O=C1/C(=C/c2ccc(Cl)c(Cl)c2)CNC/C1=C\c1ccc(Cl)c(Cl)c1 | 18.1 µM (inactive) | 3.14 µM (inactive) | 49 µM (inactive) | 9.66 µM (inactive) | 8.39 µM (inactive) | 3.66 µM (inactive) | – | 10.3 µM (inactive) | 5.35 µM (inactive) | 1.38 µM (inactive) | 5.4 µM (inactive) | 36.5 µM (inactive) | 28.1 µM (inactive) | 20.4 µM (inactive) | 1.89 µM (inactive) | 31 µM (inactive) | 26.3 µM (inactive) | 7.6 µM (inactive) | 21.9 µM (inactive) | 7.64 µM (inactive) |
| COc1cc2c(c(OC)c1OC)-c1ccc(OC)c(=O)cc1C(NC(=O)COc1ccccc1)CC2 (stereo not drawn) | 0.0101 µM (active) | < 0.01 µM (active) | < 0.01 µM (active) | < 0.01 µM (active) | 0.0372 µM (active) | 0.0546 µM (active) | 39.9 µM (inactive) | < 0.01 µM (active) | < 0.01 µM (active) | < 0.01 µM (active) | < 0.01 µM (active) | < 0.01 µM (active) | < 0.01 µM (active) | < 0.01 µM (active) | < 0.01 µM (active) | 0.627 µM (active) | 0.0498 µM (active) | < 0.01 µM (active) | < 0.0372 µM (active) | < 0.01 µM (active) |
| O=[N+]([O-])c1ccc(-n2nnc(C3=NCCN3)c2-c2ccccc2)cc1 | > 100 µM (inactive) | – | – | > 100 µM (inactive) | > 100 µM (inactive) | – | – | > 100 µM (inactive) | > 100 µM (inactive) | > 100 µM (inactive) | > 100 µM (inactive) | > 100 µM (inactive) | > 100 µM (inactive) | – | > 100 µM (inactive) | > 100 µM (inactive) | > 100 µM (inactive) | > 100 µM (inactive) | > 100 µM (inactive) | – |
| COC(=O)[C@@]12C(=O)C=CC(=O)[C@@H]1C1C(=CC2COC(C)=O)O[C@@H]2OC3(CCCCC3)O[C@H]12 (stereo partly drawn) | 9.04 µM (inactive) | 19.5 µM (inactive) | 18.3 µM (inactive) | 16.1 µM (inactive) | 2.89 µM (inactive) | 12.8 µM (inactive) | 3.66 µM (inactive) | 16.9 µM (inactive) | 6.01 µM (inactive) | 3.75 µM (inactive) | 3.29 µM (inactive) | 18 µM (inactive) | 15.7 µM (inactive) | 12.6 µM (inactive) | 9.68 µM (inactive) | 8.38 µM (inactive) | 17.2 µM (inactive) | 16 µM (inactive) | 17.2 µM (inactive) | 14.1 µM (inactive) |
